Laboratory results taken from patent US20150342195A1, “ANTI-MICROBIAL COMPOSITIONS, PREPARATIONS, METHODS, AND USES” (MYCO SCIENCES LIMITED, priority 2014, published 2015).
Like-named read-outs stand apart in the source and are kept apart here.

What was measured:
[1] = tested on: Alternaria alternata; assay: Fungal growth inhibition assay (hyphal growth diameter on PDA); type: cell-based; details: for IC50: Alternaria alternata
[2] = tested on: Mycosphaerella graminicola; assay: as above; type: cell-based
Method: The fungal strains used in these studies are described in TABLE 2. The strains were routinely cultured in 9 centimeter Petri dishes containing 10 milliliters of potato dextrose agar (PDA) at room temperature (22° C.) apart from U. maydis (28° C.).
(§1) To assess the effects of compositions on fungal growth, 10 microliters of the test compositions diluted in sterile distilled water were placed in the wells of a 12-well tissue culture plate and 1 milliliter of liquid PDA was added by pipette to each well. Where multiple samples were added to each well, the 10 microliter drops were kept separate until they were mixed by the addition of hot liquid PDA and the plate was then agitated to evenly distribute the test composition(s) evenly through the agar (distilled water was used as vehicle control) and then the agar was allowed to set. […] To assess the effects of compositions on fungal growth in all experiments, the diameter of the hyphal growth was measured twice at a 90° angle using a ruler and the average diameter in millimeters was calculated. If no fungal growth could be detected by eye, the cultures were observed by phase microscopy (40×) to confirm that there was no growth (NG).

[3] = tested on: Trichophyton rubrum; assay: Fungal growth inhibition assay with Trichophyton rubrum; type: cell-based
Method: as §1, with “set. For most strains (see TABLE 2), plugs of agar containing fungal hyphae (2 to 3 millimeters in diameter) from the edge of an established fungal culture were carefully cut out using a scalpel and inserted into holes cut in the centre of the agar in each well of the 12-well plate. With B. cinerea and U. maydis, mature cultures were washed with 3 ml of sterile distilled water and the spore suspensions obtained were adjusted to O.D. (at 600 nanometers) of 1.0 and 1.5, respectively. A small hole (˜1 millimeter) was made in the center of the PDA in each well with a yellow pipette tip and 1.5 microliters of spore suspension was carefully pipetted into the hole.” for “set.”
A clinical isolate of T. rubrum (strain 7107996; Phylum: Acomycota) was kindly provided by Dr. Richard Barton, Leeds University, UK. The growth assays with T. rubrum were as described in EXAMPLE 1, except this strain was cultured at 33° C. on PDA for 6 or 7 days when growth was assessed. T. rubrum cultures were maintained on Sabouraud dextrose agar at 33° C.
FIG. 8 is a graph depicting the effects of selected compositions and compounds on the growth of Trichophyton rubrum. The culture period was 7 days. Growth in the control cultures was 20±0 millimeters (mean±SD for 2 experiments).

[4] = tested on: Rhizoctonia solani; assay: Fungal growth inhibition assay (hyphal growth diameter on PDA); type: cell-based; details: for IC50: Rhizoctonia solani
[5] = tested on: Xanthomonas oryzae (strain Gx0372); assay: microbe, parasite or virus in culture; type: cell-based; details: Xanthomonas oryzae, 24 h
[6] = tested on: 4 plant pathogenic bacterial strains; details: KS at ≧10,000 milligrams/liter, any strain
[7] = tested on: Botrytis cinerea; assay: Fungal growth inhibition assay (hyphal growth diameter on PDA); type: cell-based; details: for IC50: Botrytis cinerea
[8] = tested on: Magnaporthe oryzae; assay: microbe, parasite or virus in culture; type: cell-based; details: for Average diameter of fungal growth: Cu—Zn#12 0%, plug subtracted
[9] = tested on: Aspergillus niger; assay: Fungal growth inhibition assay (hyphal growth diameter on PDA); type: cell-based; details: for IC50: Aspergillus niger
[10] = tested on: Pseudomonas syringae (pv. tomato DC3000); assay: Bacterial microplate culture (resazurin MIC); type: cell-based; details: Pseudomonas syringae; 24 hours at 28° C.; highest concentration 400 mg/L (1% of stock solutions); read-out: MIC
[11] = tested on: plant pathogenic fungi; assay: organism not typed; type: cell-based; details: for fungal growth with KS: 1000 milligrams/liter KS
[12] = tested on: Ralstonia solanacearum (strain PSS4 from tomato); assay: microbe, parasite or virus in culture; type: cell-based; details: Ralstonia solanacearum, 24 h
[13] = tested on: Fusarium graminearum; assay: microbe, parasite or virus in culture; type: cell-based; details: for IC50: Fusarium graminearum
[14] = tested on: Ustilago maydis; assay: Fungal growth inhibition assay (hyphal growth diameter on PDA); type: cell-based; details: for IC50: Mycosarcoma maydis
[15] = tested on: Xanthomonas campestris (strain Race 5 from brassica); assay: Bacterial microplate culture (resazurin MIC); type: cell-based; details: Xanthomonas campestris; 24 hours at 28° C.; highest concentration 400 mg/L (1% of stock solutions); read-out: MIC
[16] = read-out: Potassium sorbate IC50, mean ± SD, PDA
[17] = read-out: Potassium sorbate IC50, single experiments, PDA

With `C/C=C/C=C/C(=O)[O-].[K+]` [Potassium sorbate] the IC50 [1, 16] was 190 µg/mL, the IC50 [1, 17] was 180 µg/mL and the “Potassium sorbate IC50, single experiments” value (shortened to “Potassium sorbate IC50”) ([1]; PDA) was 200 µg/mL. For the same compound, the “Minimum KS concentration required for NG” value ([1]; PDA, NG = no fungal growth) was 300 mg/L, the “Minimum KS concentration required for NG” value ([2]; NG = no fungal growth) was 300 mg/L and the IC50 ([2]; Zymoseptoria tritici, read-out: Potassium sorbate IC50, single experiment) was 150 µg/mL. For the same compound, the “inhibition of fungal growth” value ([3]; KS 100 milligrams/liter on its own) was 6%, the “KS concentration required for complete inhibition of fungal growth” value ([3]; KS alone (FIG. 9)) was 300 milligrams/liter and the “T. rubrum IC50 values: % of stock solution” value ([3]; PDA, 33° C., 7 days) was 0.017 % of stock solution. The IC50 ([3]; Trichophyton rubrum, 168 h, PDA, 33° C., 7 days, Cu—Zn#12: 50% each of elemental copper and zinc, read-out: T. rubrum IC50 values: Concentration) was 17 µg/mL, the “Potassium sorbate IC50” value ([4]; PDA) was 100 µg/mL and the “Minimum KS concentration required for NG” value ([4]; PDA, NG = no fungal growth) was 1000 mg/L. It also gave an IC50 [4, 16] of 91 µg/mL, an IC50 [4, 17] of 73 µg/mL and an MIC [5] greater than 10000 µg/mL. For the same compound, the “effect on bacterial growth” value [6] was “no effect”, the IC50 [7, 16] was 175 µg/mL and the IC50 [7, 17] was 200 µg/mL. The “Potassium sorbate IC50” value ([7]; PDA) was 150 µg/mL, the “Minimum KS concentration required for NG” value ([7]; PDA, NG = no fungal growth) was 1000 mg/L and the “Average diameter of fungal growth” value ([8]; KS 10 mg/L, PDA) was 17 mm. For the same compound, the “Average diameter of fungal growth” value ([8]; KS 30 mg/L, PDA) was 17 mm, the “Average diameter of fungal growth” value ([8]; KS 100 mg/L, PDA) was 15 mm and the “Average diameter of fungal growth” value ([8]; KS 150 mg/L, PDA) was 14 mm. For the same compound, the “Average diameter of fungal growth” value ([8]; KS 300 mg/L, PDA) was 9 mm, the “effect on fungal growth alone” value ([8]; KS 10 milligrams/liter alone) was “no effect” and the “Minimum KS concentration required for NG” value ([8]; PDA, NG = no fungal growth) was 1000 mg/L. For the same compound, the IC50 ([8]; Pyricularia oryzae, read-out: Potassium sorbate IC50, mean ± SD, PDA) was 140 µg/mL, the “KS concentration that completely inhibited growth” value ([8]; in the presence of […] Cu—Zn#12) was 30 milligrams/liter and the “times lower KS concentration for complete inhibition” value ([8]; with […] Cu—Zn#12 versus KS alone) was 33 times. The IC50 [9, 16] was 91 µg/mL, the IC50 [9, 17] was 82 µg/mL and the “Potassium sorbate IC50” value ([9]; PDA) was 100 µg/mL. For the same compound, the “Minimum KS concentration required for NG” value ([9]; PDA, NG = no fungal growth) was 300 mg/L, the MIC [10] was greater than 10000 µg/mL and the “number of fungal strains whose growth was completely inhibited” value ([11]; 300 milligrams/liter KS, eight strains tested) was 4 strains. The “fungal growth with KS” value ([11]; all eight fungal strains) was “completely inhibited”, the “fungal growth with KS” value ([11]; five fungal strains of FIG. 2) was “no growth” and the IC50 ([11]; read-out: KS IC50 range on plant pathogenic fungi) was 77 to 190 µg/mL. It also gave an MIC [12] greater than 10000 µg/mL, an IC50 [13, 16] of 185 µg/mL and an IC50 [13, 17] of 150 µg/mL. For the same compound, the “Potassium sorbate IC50” value ([13]; PDA) was 220 µg/mL, the “Minimum KS concentration required for NG” value ([13]; PDA, NG = no fungal growth) was 1000 mg/L and the IC50 ([14]; read-out: KS IC50, PDA) was 0.077 µg/mL. For the same compound, the IC50 [14, 16] was 77 µg/mL, the IC50 [14, 17] was 74 µg/mL and the “Potassium sorbate IC50” value ([14]; PDA) was 80 µg/mL. The “Minimum KS concentration required for NG” value ([14]; PDA, NG = no fungal growth) was 300 mg/L and the MIC [15] was greater than 10000 µg/mL.
